Experimental data from patent US11524966B1 (Valo Early Discovery, Inc., priority 2017, dated 2022).
pIC50: −log10 of the molar value. Like-named read-outs stand apart in the source and are kept apart here.

Target: T1, USP25 (USP25-His6, Boston Biochem E-546) (Homo sapiens, UniProt Q9UHP3)
T1 construct: His6; purchased Boston Biochem E-546
T1 sequence (Q9UHP3 1-1055): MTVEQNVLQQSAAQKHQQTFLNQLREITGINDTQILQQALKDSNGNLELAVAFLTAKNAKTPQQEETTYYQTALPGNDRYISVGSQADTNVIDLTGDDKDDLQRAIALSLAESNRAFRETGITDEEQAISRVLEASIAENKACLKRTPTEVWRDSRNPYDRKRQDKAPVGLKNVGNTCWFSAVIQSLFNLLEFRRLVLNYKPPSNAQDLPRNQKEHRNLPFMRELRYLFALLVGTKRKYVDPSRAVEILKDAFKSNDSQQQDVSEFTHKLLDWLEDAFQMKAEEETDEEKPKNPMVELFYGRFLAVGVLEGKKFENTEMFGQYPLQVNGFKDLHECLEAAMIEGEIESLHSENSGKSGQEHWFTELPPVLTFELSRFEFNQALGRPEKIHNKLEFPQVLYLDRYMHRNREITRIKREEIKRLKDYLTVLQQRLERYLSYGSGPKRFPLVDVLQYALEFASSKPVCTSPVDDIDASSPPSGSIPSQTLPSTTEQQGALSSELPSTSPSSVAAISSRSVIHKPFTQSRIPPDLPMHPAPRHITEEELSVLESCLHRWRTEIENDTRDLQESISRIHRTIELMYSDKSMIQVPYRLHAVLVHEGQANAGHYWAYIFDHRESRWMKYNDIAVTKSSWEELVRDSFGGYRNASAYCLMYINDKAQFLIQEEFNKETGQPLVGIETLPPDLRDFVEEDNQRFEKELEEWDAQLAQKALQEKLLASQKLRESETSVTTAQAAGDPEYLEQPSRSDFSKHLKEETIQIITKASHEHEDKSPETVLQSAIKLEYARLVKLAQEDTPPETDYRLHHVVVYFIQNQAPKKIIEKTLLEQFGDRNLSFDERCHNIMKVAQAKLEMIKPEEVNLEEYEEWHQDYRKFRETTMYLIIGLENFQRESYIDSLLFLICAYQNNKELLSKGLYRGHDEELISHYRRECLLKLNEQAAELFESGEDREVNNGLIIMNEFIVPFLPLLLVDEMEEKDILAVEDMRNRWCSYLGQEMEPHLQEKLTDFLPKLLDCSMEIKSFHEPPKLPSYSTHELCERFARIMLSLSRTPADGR
Experiment: Ubiquitin-Rhodamine 110 Assay for USP25 Activity, Example A-2
Assay type: biochemical
Conditions: Ubiquitin-Rhodamine 110 assay, read-out: USP25 A-2 IC50 range
How it was run: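 USP25-His6 (75 pM) was preincubated with compound (10-point, 3-fold series, 25 μM to 1.3 nM) for 30 min in 20 mM Tris-HCl pH 8.0, 3 mM BME, 0.03% BGG, 0.01% Triton X-100. Ub-Rh110 (25 nM, <<Km) was then added for 45 min at room temperature, citric acid-stopped, and fluorescence read at 485/535 nm.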

`Cc1cc(C(F)(F)F)c2c(N)c(C(=O)N[C@H]3COc4cc(N5CCNCC5)cc(F)c4C3)sc2n1` [Example 10-14, (R)-3-amino-N-(5-fluoro-7-(piperazin-1-yl)chroman-3-yl)-6-methyl-4-(trifluoromethyl)thieno[2,3-b]pyridine-2-carboxamide] gave a pIC50 (Example A-2) of 6.70 to 7.30.

`Cc1ccc2c(N)c(C(=O)N[C@H]3COc4cc(O[C@@H]5COC6(CNC6)C5)ccc4C3)sc2n1` (single isomer, unassigned) [Example 9-1] gave a pIC50 (Example A-2) of 6.70 to 7.30.

`Cc1ccc2c(N)c(C(=O)N[C@@H]3CCc4cc(N5C6CNCC5C6)ccc4C3)sc2n1` (single isomer, unassigned) [Example 11-36] was tested, and the pIC50 (format Example A-2) was 5.70 to 6.70.

`Cc1ccc2c(N)c(C(=O)N[C@@H]3CCc4cc(N5CC6CCC(C5)N6)c(F)cc4C3)sc2n1` (single isomer, unassigned) [Example 21-3] was tested, and the pIC50 (format Example A-2) was 6.70 to 7.30.

In the case of `Cc1ccc2c(N)c(C(=O)N[C@H]3COc4c(F)c(N5CC6CCC(C5)N6)cc(F)c4C3)sc2n1` (single isomer, unassigned) [Example 13-1], the pIC50 (format Example A-2) was 6.70 to 7.30.

For `[2H]C1([2H])NC([2H])([2H])C([2H])([2H])N(c2cc(F)c3c(c2)OC[C@H](NC(=O)c2sc4nc(C)ccc4c2N)C3)C1([2H])[2H]` [Example 10-4, (R)-3-amino-N-(5-fluoro-7-(piperazin-l-yl-2,2,3,3,5,5,6,6-d8)chroman-3-yl)-6-methylthieno[2,3-b]pyridine-2-carboxamide], the pIC50 (Example A-2) was 6.70 to 7.30.

With `COc1ccc2c(N)c(C(=O)N[C@H]3COc4cc(N5CCNCC5)cc(F)c4C3)sc2n1` [Example 10-11, (R)-3-amino-N-(5-fluoro-7-(piperazin-1-yl)chroman-3-yl)-6-methoxythieno[2,3-b]pyridine-2-carboxamide] the pIC50 (Example A-2) was 6.70 to 7.30.

`Cc1ccc2c(N)c(C(=O)N[C@H]3COc4cc(N5CC6CNCC(C5)O6)cc(F)c4C3)sc2n1` [Example 10-6, N-((3R)-7-(9-oxa-3,7-diazabicyclo[3.3.1]nonan-3-yl)-5-fluorochroman-3-yl)-3-amino-6-methylthieno[2,3-b]pyridine-2-carboxamide] was tested, and the pIC50 (Example A-2) was 6.70 to 7.30.

`Cc1ccc2c(N)c(C(=O)N[C@H]3CCc4c(ccc(N5CCNCC5)c4F)C3)sc2n1` (single isomer, unassigned) [Example 21-6] showed a pIC50 (format Example A-2) of under 5.70.

Compound `CCn1ccc2cc(C(=O)N[C@H]3CCc4cc(N5CC6CCC(C5)N6)ccc4C3)nnc21` (single isomer, unassigned) [Example 11-24] has a pIC50 (Example A-2) of under 5.70.

In the case of `Cc1nc2sc(C(=O)N[C@@H]3CCc4c(C#N)c(N5CC6CCC(C5)N6)cc(F)c4C3)c(N)c2s1` (single isomer, unassigned) [Example 14-22], the pIC50 (format Example A-2) was under 5.70.

For `Cc1cnc2c(N)c(C(=O)N[C@@H]3CCc4cc(N5CCNC[C@@H](O)C5)ccc4C3)sc2n1` (single isomer, unassigned) [Example 7-5], the pIC50 (Example A-2) was 5.70 to 6.70.

Compound `Cc1ccc2c(N)c(C(=O)N[C@H]3COc4cc(N5CC6CCC(C5)N6)c(F)c(F)c4C3)sc2n1` [Example 13-3, N-((3R)-7-(3,8-diazabicyclo[3.2.1]octan-3-yl)-5,6-difluorochroman-3-yl)-3-amino-6-methylthieno[2,3-b]pyridine-2-carboxamide] has a pIC50 (format Example A-2) of under 5.70.

For `Cc1ccc2c(N)c(C(=O)N[C@H]3CCc4c(ccc(N5CC6CCC(C5)N6)c4F)C3)sc2n1` (single isomer, unassigned) [Example 21-2], the pIC50 (format Example A-2) was 5.70 to 6.70.

In the case of `Cc1nc2sc(C(=O)N[C@H]3CCc4cc(N5CC6CCC(C5)N6)ccc4C3)c(N)c2s1` (single isomer, unassigned) [Example 12-1], the pIC50 (format Example A-2) was under 5.70.

`CO[C@H]1CN(c2ccc3c(n2)CC[C@H](NC(=O)c2sc4nc(C)ccc4c2N)C3)C[C@@H]1N` [Example 23-4, 3-amino-N-[(6S)-2-[(3S,4S)-3-amino-4-methoxypyrrolidin-1-yl]-5,6,7,8-tetrahydroquinolin-6-yl]-6-methylthieno[2,3-b]pyridine-2-carboxamide] was tested, and the pIC50 (format Example A-2) was under 5.70.

Compound `Cc1cnc2c(N)c(C(=O)N[C@H]3COc4cc(N5CC6CC(C5)N6)cc(F)c4C3)sc2n1` [Example 10-8, N-((3R)-7-(3,6-diazabicyclo[3.1.1]heptan-3-yl)-5-fluorochroman-3-yl)-7-amino-3-methylthieno[2,3-b]pyrazine-6-carboxamide] has a pIC50 (Example A-2) of 6.70 to 7.30.

Work on `Cc1cnc2c(N)c(C(=O)N[C@H]3CCc4cc(N5CC6CCC(C5)N6)ccc4C3)sc2n1` (single isomer, unassigned) [Example 11-7] yielded a pIC50 (Example A-2) of 5.70 to 6.70.

In the case of `Cc1ccc2c(N)c(C(=O)N[C@@H]3COc4c(F)c(N5CC6CCC(C5)N6)cc(F)c4C3)sc2n1` (single isomer, unassigned) [Example 13-2], the pIC50 (format Example A-2) was under 5.70.

Compound `Cc1ccc2c(N)c(C(=O)N[C@H]3COc4cc(C5(F)CCNCC5)ccc4C3)sc2n1` [Example 8-1, (R)-3-Amino-N-(7-(4-fluoropiperidin-4-yl)chroman-3-yl)-6-methylthieno[2,3-b]pyridine-2-carboxamide] has a pIC50 (Example A-2) of 6.70 to 7.30.

`Cc1ccc2c(N)c(C(=O)N[C@H]3COc4c(ccc(N5CCNCC5)c4Cl)C3)sc2n1` [Example 13_7, (R)-3-amino-N-(8-chloro-7-(piperazin-1-yl)chroman-3-yl)-6-methylthieno[2,3-b]pyridine-2-carboxamide] was tested, and the pIC50 (format Example A-2) was 6.70 to 7.30.

For `Cc1ccc2c(N)c(C(=O)N[C@H]3COc4nc(N5CCNCC5)c(F)cc4C3)sc2n1` [Example 20, (R)-3-Amino-N-(6-fluoro-7-(piperazin-1-yl)-3,4-dihydro-2H-pyrano[2,3-b]pyridin-3-yl)-6-methylthieno[2,3-b]pyridine-2-carboxamide], the pIC50 (format Example A-2) was 5.70 to 6.70.

Compound `Cc1ccc2c(N)c(C(=O)N[C@H]3CCc4cc(N5CC6CCC(C5)N6)c(F)cc4C3)sc2n1` (single isomer, unassigned) [Example 21-4] has a pIC50 (format Example A-2) of under 5.70.

`Cc1cnc2c(N)c(C(=O)N[C@@H]3CCc4cc(N5CC6CCC(C5)N6)ccc4C3)sc2n1` (single isomer, unassigned) [Example 11-8] gave a pIC50 (Example A-2) of under 5.70.

`Cc1ccc2c(N)c(C(=O)N[C@@H]3COc4cc(N5CCNCC5)cc(F)c4C3)sc2n1` [Example 10-5, (S)-3-amino-N-(5-fluoro-7-(piperazin-1-yl)chroman-3-yl)-6-methylthieno[2,3-b]pyridine-2-carboxamide] gave a pIC50 (Example A-2) of under 5.70.

In the case of `Cc1ccc2c(N)c(C(=O)N[C@@H]3CCc4cc(N5CCN[C@@H](CO)C5)ccc4C3)sc2n1` (single isomer, unassigned) [Example 7-11], the pIC50 (Example A-2) was 5.70 to 6.70.

Compound `Cc1cnc2c(N)c(C(=O)N[C@H]3CCc4cc(N5CCNC[C@@H](O)C5)ccc4C3)sc2n1` (single isomer, unassigned) [Example 7-4] has a pIC50 (Example A-2) of 5.70 to 6.70.

In the case of `Cc1ccc2c(N)c(C(=O)N(C)[C@H]3COc4cc(N5CCNCC5)cc(F)c4C3)sc2n1` [Example 10-15, 3-amino-N-[(3R)-5-fluoro-7-(piperazin-1-yl)-3,4-dihydro-2H-1-benzopyran-3-yl)-N,6-dimethylthieno[2,3-b]pyridine-2-carboxamide], the pIC50 (Example A-2) was under 5.70.

With `CCn1ccc2cc(C(=O)N[C@@H]3CCc4cc(N5CC6CCC(C5)N6)ccc4C3)cnc21` (single isomer, unassigned) [Example 11-10] the pIC50 (Example A-2) was 5.70 to 6.70.

In the case of `Cc1ccc2c(N)c(C(=O)N[C@@H]3CCc4c(F)c(N5CCNCC5)cc(F)c4C3)sc2n1` (single isomer, unassigned) [Example 22-2], the pIC50 (format Example A-2) was 6.70 to 7.30.

`Cc1ccc2c(N)c(C(=O)N[C@@H]3COc4c(ccc(N5CCNCC5)c4Cl)C3)sc2n1` [Example 13-8, (S)-3-amino-N-(8-chloro-7-(piperazin-1-yl)chroman-3-yl)-6-methylthieno[2,3-b]pyridine-2-carboxamide] showed a pIC50 (format Example A-2) of under 5.70.

For `Cc1ccc2c(N)c(C(=O)N[C@H]3CCc4cc(N5CCN[C@H](CO)C5)ccc4C3)sc2n1` (single isomer, unassigned) [Example 7-8], the pIC50 (Example A-2) was under 5.70.

For `Cc1ccc2c(N)c(C(=O)N[C@@H]3CCc4c(F)c(N5CC6CNCC(C5)O6)cc(F)c4C3)sc2n1` (single isomer, unassigned) [Example 22-4], the pIC50 (format Example A-2) was 7.30 to 9.00.

For `Cc1cc(C)c2c(N)c(C(=O)N[C@H]3COc4cc(N5CC6CC(C5)N6)cc(F)c4C3)sc2n1` [Example 10-7, N-((3R)-7-(3,6-diazabicyclo[3.1.1]heptan-3-yl)-5-fluorochroman-3-yl)-3-amino-4,6-dimethylthieno[2,3-b]pyridine-2-carboxamide], the pIC50 (Example A-2) was 6.70 to 7.30.

Compound `Cc1ccc2c(N)c(C(=O)N[C@@H]3CCc4c(ccc(N5CCNCC5)c4F)C3)sc2n1` (single isomer, unassigned) [Example 21-5] has a pIC50 (format Example A-2) of 6.70 to 7.30.
